Measurements reported in US9499550B2 (BRISTOL-MYERS SQUIBB COMPANY, priority 2012, dated 2016).
pEC50: −log10 of the molar value. Read-outs that look alike come from different tables or passages of the source.

What was measured:
[1] = system: HCV genotype 1a (H77 strain) replicon in HUH-7 cells; experiment: HCV replicon luciferase reporter assay, genotype 1a; type: cell-based; details: Hepatitis C virus, Huh-7, 72 h, HCV genotype 1a replicon luciferase, 3 days incubation
Summary of the method: (§1)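 Replicon inhibition for both genotypes was measured as Renilla luciferase signal (EnduRen, 7.5 μM final, 2 h) after 3-day, 37° C exposure of replicon-bearing HUH-7 cells in 4% FCS DMEM, 0.5% DMSO. The 1b construct carries S1179I; the 1a H77 construct carries P1496L and S2204I. Twenty-point, 3-fold dilutions were fitted four-parametrically for EC50, and CC50 was taken from multiplexed Cell Titer-Blue.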

[2] = system: HCV genotype 1b (Con1) replicon in HUH-7 cells; experiment: HCV replicon luciferase reporter assay, genotype 1b; type: cell-based; details: Hepatitis C virus, Huh-7, 72 h, HCV genotype 1b replicon luciferase, 3 days incubation
Summary of the method: as §1

## CC[C@@H]1C[C@H](C)CC/C=C\[C@@H]2C[C@@]2(C(=O)NS(=O)(=O)C2(C)CC2)NC(=O)[C@@H]2C[C@@H](Oc3ncc(OC)c4ccc(F)cc34)CN2C(=O)[C@H]1NC(=O)OC(C)(C)C(F)F [Compound 5529, 1,1-difluoro-2-methylpropan-2-yl((2R,6S,7R,9R,13aS,14aR,16aS,Z)-7-ethyl-2-((7-fluoro-4-methoxyisoquinolin-1-yl)oxy)-9-methyl-14a-(((1-methylcyclopropyl)sulfonyl)carbamoyl)-5,16-dioxo-1,2,3,5,6,7,8,9,10,11,13a,14,14a,15,16,16a-hexadecahydrocyclopropa[e]pyrrolo[1,2-a][1,4]diazacyclopentadecin-6-yl)carbamate]
[1]; read-out: LE_1a (EC50, range)
  pEC50: 8.30 to 9.00
[2]; read-out: LE_1b (EC50, range)
  pEC50: 9.30 to 10.00

## CCn1nc(O[C@@H]2C[C@H]3C(=O)N[C@]4(C(=O)NS(=O)(=O)C5(C)CC5)C[C@H]4/C=C\CC[C@H](C)C[C@@H](C)[C@H](NC(=O)OC(C)(C)C(F)(F)F)C(=O)N3C2)c2ccccc2c1=O [Compound 5052, 1,1,1-trifluoro-2-methylpropan-2-yl((2R,6S,7R,9S,13aS,14aR,16aS,Z)-2-((3-ethyl-4-oxo-3,4-dihydrophthalazin-1-yl)oxy)-7,9-dimethyl-14a-(((1-methylcyclopropyl)sulfonyl)carbamoyl)-5,16-dioxo-1,2,3,5,6,7,8,9,10,11,13a,14,14a,15,16,16a-hexadecahydrocyclopropa[e]pyrrolo[1,2-a][1,4]diazacyclopentadecin-6-yl)carbamate]
[1]; read-out: LE_1a (EC50)
  pEC50: 6.48
[1]; read-out: LE_1a (EC50, range)
  pEC50: < 7.06
[2]; read-out: LE_1b (EC50)
  pEC50: 7.12
[2]; read-out: LE_1b (EC50, range)
  pEC50: 6.99 to 8.32

## CC[C@@H]1C[C@H](C)CC/C=C\[C@@H]2C[C@@]2(C(=O)NS(=O)(=O)C2(C)CC2)NC(=O)[C@@H]2C[C@@H](Oc3ncc(N4CCOCC4)c4ccccc34)CN2C(=O)[C@H]1NC(=O)OC(C)(C)C [Compound 5417]
[1]; read-out: LE_1a (EC50, range)
  pEC50: 8.30 to 9.00
[2]; read-out: LE_1b (EC50, range)
  pEC50: 8.30 to 9.00

## C[C@@H]1CC/C=C\[C@@H]2C[C@@]2(C(=O)NS(=O)(=O)C2(C)CC2)NC(=O)[C@@H]2C[C@@H](Oc3nccc4c5c(ccc34)N(C)CCO5)CN2C(=O)[C@@H](NC(=O)OC(C)(C)C(F)(F)F)[C@H](C)C1 [Compound 5296, 1,1,1-trifluoro-2-methylpropan-2-yl((2R,6S,7R,9R,13aS,14aR,16aS,Z)-7,9-dimethyl-2-((4-methyl-3,4-dihydro-2H-[1,4]oxazino[2,3-f]isoquinolin-7-yl)oxy)-14a-(((1-methylcyclopropyl)sulfonyl)carbamoyl)-5,16-dioxo-1,2,3,5,6,7,8,9,10,11,13a,14,14a,15,16,16a-hexadecahydrocyclopropa[e]pyrrolo[1,2-a][1,4]diazacyclopentadecin-6-yl)carbamate]
[1]; read-out: LE_1a (EC50, range)
  pEC50: > 8.26
[2]; read-out: LE_1b (EC50, range)
  pEC50: > 8.26

## C[C@@H]1CC/C=C\[C@@H]2C[C@@]2(C(=O)NS(=O)(=O)C2CC2)NC(=O)[C@@H]2C[C@@H](Oc3ncc(OCC4CC4)c4ccc(F)cc34)CN2C(=O)[C@@H](NC(=O)OC(C)(C)C)[C@H](C)C1 [Compound 4166, tert-butyl (2R,6S,7R,9R,13aS,14aR,16aS,Z)-2-(4-(cyclopropylmethoxy)-7-fluoroisoquinolin-1-yloxy)-14a-(cyclopropylsulfonylcarbamoyl)-7,9-dimethyl-5,16-dioxo-1,2,3,5,6,7,8,9,10,11,13a,14,14a,15,16,16a-hexadecahydrocyclopropa[e]pyrrolo[1,2-a][1,4]diazacyclopentadecin-6-ylcarbamate]
[1]; read-out: LE_1a (EC50, range)
  pEC50: > 8.26
[2]; read-out: LE_1b (EC50, range)
  pEC50: > 8.26

## CC(C)Oc1ccc2c(O[C@@H]3C[C@H]4C(=O)N[C@]5(C(=O)NS(=O)(=O)C6(C)CC6)C[C@H]5/C=C\CC[C@@H](C)C[C@@H](C)[C@H](NC(=O)OC(C)(C)C(F)(F)F)C(=O)N4C3)nccc2c1 [Compound 5159, 1,1,1-trifluoro-2-methylpropan-2-yl((2R,6S,7R,9R,13aS,14aR,16aS,Z)-2-((6-isopropoxyisoquinolin-1-yl)oxy)-7,9-dimethyl-14a-(((1-methylcyclopropyl)sulfonyl)carbamoyl)-5,16-dioxo-1,2,3,5,6,7,8,9,10,11,13a,14,14a,15,16,16a-hexadecahydrocyclopropa[e]pyrrolo[1,2-a][1,4]diazacyclopentadecin-6-yl)carbamate]
[1]; read-out: LE_1a (EC50, range)
  pEC50: > 8.26
[2]; read-out: LE_1b (EC50, range)
  pEC50: > 8.26
